According to publication PMC7224568 (PLoS Pathogens, 2020):
“Also recorded” adds a separate entry of the source.

What was measured:
soluble P14 TCR (mouse) [1] = experiment: ITC
soluble P14 TCR (mouse) [2] = experiment: SPR
P14 T cells [3] = assay type: cell-based, mouse
P14 T cells [4] = assay type: cell-based, mouse; remark: listed apart in the source
H-2D^b (pMHC complex) = assay type: binding, mouse
soluble TCR P14 [5] = assay type: binding, mouse
soluble TCR P14 [6] = assay type: binding, mouse; remark: listed apart in the source
P14 T cells [7] = assay type: cell-based, mouse; remark: listed apart in the source
P14 T cells [8] = assay type: cell-based, mouse; remark: listed apart in the source
P14 T cells [9] = assay type: cell-based, mouse; remark: listed apart in the source
TCR P14 = details: cited from earlier work
T cell clone YF.F3 = details: cited from earlier work

Substance	TNF and IFNγ production by LCMV-activated P14 T cells (in words) (P14 T cells [4])	pMHC complex thermal stability (in words) (H-2D^b (pMHC complex))	Tm (50% protein denaturation), in Fig 1A (H-2D^b (pMHC complex); pH 7.5)	thermodynamics of P14 binding (in words) (soluble TCR P14 [6])	P14 TCR down-regulation / internalization (in words) (P14 T cells [7])	TNF and IFNγ production by P14 T cells (in words) (P14 T cells [8])	CD107a expression (degranulation) of P14 T cells (in words) (P14 T cells [9])	also measured
H-2D^b/gp33 (from UniProt P01887 21-119) (peptide-MHC)								Kd (soluble P14 TCR (mouse) [1]): 5.8 µM; dH (soluble P14 TCR (mouse) [1]): -10.2 kcal/mol; Kd (soluble P14 TCR (mouse) [2]): 8.6 µM
KAPFNFATM [Peptide V3P_Y4F]	produced TNF and IFNγ							tetramer recognition by LCMV-activated P14 T cells (in words) (P14 T cells [3]): a significant amount of the activated P14 T cells recognized the H-2D^b/V3P_Y4F complex
KAPYNFATM [Peptide V3P]		consistent increase in pMHC complex thermal stability	57.3 °C	mainly enthalpy-driven with almost null contribution of entropy; also recorded: the energy required for P14 recognition of V3P is reduced compared to gp33; also recorded: reduced unfavorable entropic contribution	equaled or increased TCR internalization compared to gp33	induced significant production of TNF and IFNγ	induced significant production of TNF and IFNγ, as well as CD107a expression	Tm (temperature with 50% pMHC denaturation) (H-2D^b (pMHC complex); pH 7.5): 57.3±0.4 C; P14 TCR binding to pMHC (in words) (soluble TCR P14 [5]): significantly higher binding affinity of soluble P14 TCR to H-2D^b/V3P compared to H-2D^b/gp33; TΔS (soluble TCR P14 [6]; pH 7.4): -0.5 ± 0.3 kcal/mol; ΔH (soluble TCR P14 [6]; pH 7.4): -8.5 ± 0.5 kcal/mol
KAVANFATM [Peptide Y4A]								agonist class (in words) (TCR P14): semi-agonist
KAVYNFATM [gp33, reference compound]	produced TNF and IFNγ	equivalent thermal stability	53.7 °C	entropically unfavorable	induced significant TCR down-regulation	induced significant production of TNF and IFNγ	induced significant production of TNF and IFNγ, as well as CD107a expression	IFNγ production by clone YF.F3 (in words) (T cell clone YF.F3): did not produce high amounts IFNγ against gp33; killing of peptide-presenting targets by clone YF.F3 (in words) (T cell clone YF.F3): killed efficiently targets presenting gp33
